Earlier results as cited in patent US20070142395A1, “Treatment of sexual dysfunction with 1-[3-[4-(3-chlorophenyl)-1-piperazinyl]propyl]-5-methoxy-3,4-dihydro-2(1H)-quinolone or salt thereof” (Vela Pharmaceuticals, Inc., priority 2005, published 2007).

Details: SSRI/SNRI antidepressant therapy; Montejo et al. 2001; cited from earlier work

Row | Structure (SMILES) | incidence of sexual dysfunction as side effect [%]
1 | CN[C@H]1CC[C@@H](c2ccc(Cl)c(Cl)c2)c2ccccc21 [sertraline] | 62.9
2 | COc1ccc(C(CN(C)C)C2(O)CCCCC2)cc1 (centres unmarked) [venlafaxine] | 67.3
3 | Fc1ccc([C@@H]2CCNC[C@H]2COc2ccc3c(c2)OCO3)cc1 [paroxetine] | 70.7
4 | CN(C)CCCC1(c2ccc(F)cc2)OCc2cc(C#N)ccc21 (centres unmarked) [citalopram] | 72.7
5 | CNCCC(Oc1ccc(C(F)(F)F)cc1)c1ccccc1 (centres unmarked) [fluoxetine] | 57.7
